The structures appear in SMILES notation. Values joined by “and” are separate entries in the source; they are usually repeats but may differ in a detail not shown here. Equal entries are not always repeated.

We go through two compounds from US8987285B2, “Pharmaceutical compositions, dosage forms and new forms of the compound of formula (I), and methods of use thereof” (Portola Pharmaceuticals, Inc., priority 2010, dated 2015).

Series [1] is described as follows: Saturation solubility, shake-flask with UV quantification. Format: physicochemical. The note with it: listed as The compound of formula (I).
Experimental: The FaSSIF and FeSSIF solutions were prepared using Phares SIF powder according to the formulation instructions and the SGF solution was prepared using the guidelines provided. […] The pH and temperature of the supernatant were measured on a SiriusT3 instrument.
The nature of series [2]: Wettability: contact angle measurement with water on pressed powder. The note with it: for surface hydrophobilicity from contact angle: critical angle around 50° (>50° hydrophob <50° hydrophil); for Contact angle: water, in ° (unit assumed). Format: physicochemical.
Experimental: Contact angel instrument: EasyDrop DSA15E (Krüss, Hamburg, Germany)
Syringe: NE44, diameter of needle 0.5 mm (Krüss, Hamburg, Germany)
The powder was pressed (approx 50 mg powder, 3 tons, 2 min) in tablets and analyzed by contact angle measurement. The angel between the solid and the liquid is measured after 0 and up to 60 seconds using water.
All determinations used the above method and the limit for the standards measurements are well within the given limits.
Series [3] is described as follows: Super-saturation measurement (CheqSol): intrinsic and kinetic solubility. Format: physicochemical. The note with it: kinetic solubility divided by intrinsic solubility. An excerpt: Anal. Chem. 2005, 77(4), 983-990; 2—Box, K J. Völgyi, G. Baka, E. Stuart, M. Takács-Novák, K. Corner, J E A. Equilibrium vs. kinetic measurements of aqueous solubility, and the ability of compounds to supersaturate in solution—a validation study. J. Pharm. Sci. 2006, 95, 1298-1307; 3—Sköld, C. Winiwarter, S. Johan Wernevik, J. Bergström, F. Engström, L. Allen, R. Box, K. Corner, J. Mole, J. Hallberg, A. Lennernäs, H. Lundstedt, T. Ungell, A-L. Karlén, A. Presentation of a Structurally Diverse and Commercially Available Drug Data Set for Correlation and Benchmarking Studies. J. Med. Chem. 2006, 49(23), 6660-6671;
. Med. Chem.; 2007, 50 (5), 979-983; 5—Llinás, A. Box, K J. Burley, J C. Glen, R C. Goodman, J M. J. A new method for the reproducible generation of polymorphs: two forms of Sulindac with very different solubilities. […] 6—Box K et al, Using Measured pKa, Log P and Solubility to Investigate Supersaturation and Predict BCS Class, Current Drug Metabolism, 2008, 9, 869-878]
1—kinetic solubility is the concentration of a compound in solution at the time when an induced precipitate first appears
2—equilibrium solubility (also called thermodynamic solubility) is the concentration of compound in a saturated solution when excess solid is present, and solution and solid are at equilibrium
3—intrinsic solubility [Hörter, D.; Dressman, J. B. Adv. Drug Deliv. Rev., 1997, 25, 3-14] is the equilibrium solubility of the free acid or base form of an ionisable compound at a pH where it is fully un-ionized
The super-saturation ratio is calculated as the ratio of kinetic solubility divided by the Intrinsic Solubility.

Series [4] is described as follows: Comparison of pharmacokinetic effects (AUC, bioavailability) in human studies for polymorphic form B, A and D. The note with it: polymorphs of the potassium salt. Format: in vivo. As to the method:
Comparison of pharmacokinetic effects in human studies for polymorphic form B, A and D of the potassium salt of elinogrel.
Therefore the polymorphic form does have a strong impact on the bioavailability of the drug.
The bioavailability is measured in a human study according to FDA guidelines for conducting bioavailability studies. The area under the curve (AUC) of elinogrel potassium salt polymorph.

A short description of series [5]: Relative thermodynamic stability: cross-seeding, suspensions equilibrated, solid analysed by X-ray powder diffraction. Format: physicochemical.
Experimental: The relative thermodynamic stability of the anhydrous form poly-D in comparison with the known Forms A and B of the compound of formula (I) was assessed by cross-seeding experiments, where mixtures of the anhydrous form poly-D and Form A and mixtures of the anhydrous form poly-D and Form B were separately suspended in water, an organic solvent or mixtures of water and organic solvents. The suspension was then equilibrated at various temperatures for several days. The solid parts were then isolated by filtration and analysed by X-ray powder diffraction.
Series [6] is described as follows: Pharmacokinetic Study 1: FMI tablets fasted/fed versus reference IR capsule, crossover, healthy adult volunteers. Format: in vivo, human. The note with it: high fat meal versus fasted, FMI tablets. How it is done:
This was an open label, randomized, four-period, incomplete crossover, single center study in healthy adult volunteers. There were 4 treatments in the study: 3 doses of the FMI (given fasting or fed following a high-fat breakfast) and one reference IR capsule (given fed after a typical breakfast). The term “FMI” refers to the dosage form of Example 7 (30 mg FMI) or Example 8 (75 mg FMI).
Each subject was randomized to 1 of 18 treatment sequences, each with 4 treatment periods (Table 27). The first treatment period consisted of 1 of the 3 doses of FMI given fed, and treatment periods 2 to 4 consisted of 1 dose of IR capsule (fed) and 2 of the 3 doses of the FMI given fasted. […] Each subject therefore had 2 fasting treatments with the FMI formulation, 1 fed treatment with the FMI formulation and a reference treatment (IR capsule). Seventy two subjects enrolled and were dosed in the study with 70 completers.
The study consisted of a 28-day screening period, four baseline periods (one before each treatment period), four treatment periods with a wash out period of a minimum of 5 days, followed by a study completion evaluation approximately 72 hours after the last drug administration. Subjects who met the eligibility criteria at screening were admitted to baseline evaluations. All baseline safety evaluation results were available prior to dosing.
For fasted administration, elinogrel was administered in the morning, following an overnight fast of at least 10 hours. Subjects continued to fast until 4 hours post-dose. For fed administration of FMI tablets, elinogrel was administered in the morning, within 30 minutes of a high fat breakfast (approximately 1000 calories). Subjects continued to fast until 4 hours post-dose. For fed administration of the reference (IR capsule), it was administered in the morning, within 30 minutes of a typical breakfast (approximately 500 calories). Subjects continued to fast until 4 hours post-dose.
Subjects were admitted to the study site approximately 12 hours prior to dosing in each period for baseline evaluations. Following a single dose of elinogrel, PK assessments were taken up to 48 hours post dose and safety assessments were made for up to 72 hours.
Subjects were domiciled for 24 hours post dosing for PK sample collection, at which time they were discharged from the study site. Subjects returned on the following 2 mornings for 48 hour PK and 72 hour safety samples. Following the 72 hour safety assessments of treatment period 4 (or in the case of subject discontinuation) subjects underwent study completion evaluations and were discharged from the study. […].
This was a three-period, four-treatment crossover study design with an add-on food effect period (Period 1).
Treatment 1 (T1)=elinogrel 30 mg FMI dose fasting
Treatment 2 (T2)=elinogrel 75 mg FMI dose fasting
Treatment 3 (T3)=elinogrel 150 mg FMI dose fasting
Reference (R)=elinogrel 150 mg IR capsule dose fed (typical breakfast); Example 6 (Reference)
Fed treatment 1 (F1)=elinogrel 30 mg FMI dose fed (high fat breakfast)
Fed treatment 2 (F2)=elinogrel 75 mg FMI dose fed (high fat breakfast)
Fed treatment 3 (F3)=elinogrel 150 mg FMI dose fed (high fat breakfast)
Subjects will received the following treatments in a randomized order: • Treatment (T1, F1) with IR (IR=immediate release) tablet of Example 7 containing pH-modifying alkalizing agent, 30 mg in fasted and fed state. • Treatment (T2, F2) with IR (IR=immediate release) tablet of Example 8 containing pH-modifying alkalizing agent, 75 mg in fasted and fed state • Treatment (R) with 2×IR (IR=immediate release) capsule of Example 6 (Reference): 2×75 mg (150 mg) in fed state. • Treatment (T3, F3) with 2×IR (IR=immediate release) tablet of Example 8 containing pH-modifying alkalizing agent, 2×75 mg (150 mg) in fasted and fed state.
To evaluate the food effect, the geometric mean ratio for PK parameters of the fed versus fasted for each dose level and its 90% CI was estimated as shown in Table 29 below.

For `CNc1cc2[nH]c(=O)n(-c3ccc(NC(=O)[N-]S(=O)(=O)c4ccc(Cl)s4)cc3)c(=O)c2cc1F.[K+]` [Form B], the Saturation solubility in series [1] (FaSSIF pH 6.5-1w, mean N = 2, form B) stood at 132.50 µg/mL; in series [1] (FeSSIF pH 5.0-1w, mean N = 2, form B), 2.49 µg/mL; in series [1] (Na Phosphate pH 6.8, mean N = 2, form B), 25.95 µg/mL; in series [1] (Na-Acetate pH 4.5, mean N = 2, form B), 0.40 µg/mL; in series [1] (SGF pH 2.1, mean N = 2, form B), 19.14 µg/mL. For the same compound, the “final pH measured of the supernatant” value is given as 6.97 in series [1] (FaSSIF pH 6.5-1w, form B); 5.16 in series [1] (FeSSIF pH 5.0-1w, form B); 7.02 in series [1] (Na Phosphate pH 6.8, form B); 4.81 in series [1] (Na-Acetate pH 4.5, form B); 5.05 in series [1] (SGF pH 2.1, form B). For the same compound, the “surface hydrophobilicity from contact angle” value in series [2] (listed as polymorph B) is “hydrophob”. Moreover, the Contact angle is 79.7 and 72.4 in series [2] (0 sec, listed as B); 55.2 and 54.6 in series [2] (30 sec, listed as B); 52.8 and 53.5 in series [2] (60 sec, listed as B). Moreover, the ratio super saturation in series [3] (listed as K-salt-Form B) and in series [3] (listed as polymorph B of the compound of formula (I)) was 363 throughout. The AUC in series [4] (human, plasma, oral, 150 mg) was determined as 27600 ng·h/mL.

Regarding `CNc1cc2[nH]c(=O)n(-c3ccc(NC(=O)[N-]S(=O)(=O)c4ccc(Cl)s4)cc3)c(=O)c2cc1F.[K+]` [Form poly-D], the “solid form after equilibration (XRPD)” value is “No change” in series [5] (MeOH, 25° C./4 days); “No change” in series [5] (MeOH, 50° C./3 days); “No change” in series [5] (MeOH/water 1:1 v/v, 25° C./4 days); “No change” in series [5] (MeOH/water 1:1 v/v, 50° C./3 days); “No change” in series [5] (MeOH/water 1:2 v/v, 25° C./4 days); “No change” in series [5] (MeOH/water 1:2 v/v, 50° C./3 days). Besides, the “solid form after equilibration (XRPD)” value is given as “No change” in series [5] (MeOH/water 2:1 v/v, 25° C./4 days); “No change” in series [5] (MeOH/water 2:1 v/v, 50° C./3 days); “No change” in series [5] (water, 25° C./4 days); “No change” in series [5] (water, 50° C./3 days). Besides, the Saturation solubility in series [1] (FaSSIF pH 6.5-1w, mean N = 2, form poly-D, potassium salt) was determined as 166.50 µg/mL; in series [1] (FeSSIF pH 5.0-1w, mean N = 2, form poly-D, potassium salt), 6.94 µg/mL; in series [1] (Na Phosphate pH 6.8, mean N = 2, form poly-D, potassium salt), 94.55 µg/mL; in series [1] (Na-Acetate pH 4.5, mean N = 2, form poly-D, potassium salt), 0.86 µg/mL; in series [1] (SGF pH 2.1, mean N = 2, form poly-D, potassium salt), 46.10 µg/mL. The “final pH measured of the supernatant” value is listed as 7.00 in series [1] (FaSSIF pH 6.5-1w, form poly-D, potassium salt); 5.17 in series [1] (FeSSIF pH 5.0-1w, form poly-D, potassium salt); 7.08 in series [1] (Na Phosphate pH 6.8, form poly-D, potassium salt); 4.82 in series [1] (Na-Acetate pH 4.5, form poly-D, potassium salt); 6.34 in series [1] (SGF pH 2.1, form poly-D, potassium salt). Further, the “surface hydrophobilicity from contact angle” value in series [2] (listed as polymorph poly-D, potassium salt) was “hydrophilic”. The Contact angle in series [2] (0 sec, potassium salt) was 55.7 and 78.1 and 53.3; in series [2] (10 sec, potassium salt), 27.7 and 33.4 and 28.2; in series [2] (20 sec, potassium salt), 16.1 and 21.7 and 22.9; in series [2] (30 sec, potassium salt) it was 20.6; in series [2] (60 sec, potassium salt), 15.2. For the same compound, the food effect result in series [6] is reported as “significant negative food effect”. Further, the “AUC (bioavailability)” value in series [4] (150 mg dose, listed as polymorph D, potassium salt) came to 35227 ng·h/mL.
